# Assay results reported in patent publication US8765729B2, “Cancer therapy” (Aeolus Sciences, Inc., priority 2001, dated 2014).
# “Also recorded” adds a separate entry of the source. Where two headings read alike, the source gives them in different places.
# Columns and labels:
# [1] = system: mice; conditions: 48 hours; for deaths: 4 mice
# Protocol: Animals and treatments. Balb/c male mice that were 6-8 weeks of age were utilized in these studies (Taconic, Germantown, N.Y.). Mice were acclimated to 22° C. in an environmentally controlled room (12-hr light cycles) at least 6 days prior to treatment. Toxicity studies were employed using a moving average method previously described by Weil (Weil, Biometrics 8:249-263 (1952)). Groups of 4 mice were given MnTBAP (50, 88, 153 and 268 mg/kg, ip) and observed over a 48 hour time period.
# MnTBAP toxicity was assessed using a moving average method that consisted of four geometric dose groups (50, 88, 153 and 268 mg/kg, ip) of 4 mice each over 48 hours.
# [2] = Pharmacokinetic profile of MnTBAP in mice (serum and lung); conditions: 10 mg/kg ip; for Peak Level (Co): two-compartment fit
# [3] = system: tumor cells (A549)
# Protocol: (§1) Two non-tumor cell lines (rat lung epithelial cells, L2; bovine endothelial cells, CPA-47) and one tumor cell line (human adenocarcinoma lung cells, A549) were examined for cell proliferation in the presence or absence of manganic porphyrins. Cells were plated in 24 well plates at 10,000 cells per well in the presence of cytotoxic agent (0-10 mM paraquat) for 24-48 hours plus increasing concentrations of MnTBAP, MnMm-4-PyP and their zinc analogs.
# [4] = system: rat lung epithelial cells, L2; bovine endothelial cells, CPA-47
# Protocol: as §1
# [5] = system: L2, CPA-47 and A549 cells; assay: Cytotoxicity measured by LDH release; conditions: 100 μM, 48 hours
# [6] = system: bleomycin-induced pulmonary fibrosis; assay: Bleomycin-induced pulmonary fibrosis in mice
# Protocol: Noninvasive measurement of airway constriction in mice. The baseline resistance in unrestrained, conscious mice was assessed by whole body barometric plethysmography (Buxco Electronics, Troy, N.Y.). The techniques used were similar to those described by Zhu et al, J. Clin. Invest. 103(6):779-88 (1999)). Mice were placed in whole body plethysmographs with fast differential transducers interfaced to a computer. Measurements were made of respiratory rates, tidal volumes and enhanced pause (PENH). Airway constriction was expressed as PENH=[(Te/0.3Tr)−1]×[2Pef/3Pif], where Te=expiratory time (seconds), Tr=relaxation time (seconds), Pef=peak expiratory flow ([…]), and Pif=peak inspiratory flow (ml/second). Animals were allowed to equilibrate in the chambers for 15 minutes and then PENH was calculated over a 5-minute period.
# Hydroxyproline measurement. The lungs were dried at 80° C. until a constant weight is obtained. The dried lungs were hydrolyzed under vacuum in a glass vial in 1 ml of 12 N HCl at 120° C. overnight. The samples were lyophilized and assayed for hydroxyproline content using chloramine-T as previously described (Woessner, Arch. Biochem. Biophys. 93:440-447 (1961)). Histopathology. The lungs were fixed in 4% paraformaldehyde for 24 hours and then processed for paraffin embedding. Sections of lung were stained with routine hematoxylin and eosin or with a Masson trichrome stain to assess the degree of fibrosis. The extent of lung injury and fibrosis was graded by four pathologists, blinded as to the treatment group, on a scale of one (no injury) to ten (severe injury/fibrosis). The major criteria examined included interstitial thickening, collagen deposition, type 2 cell hyperplasia, and inflammatory cell infiltration. Statistical Analyses. Data was analyzed using a two-way analysis of variance (ANOVA) or a one-way ANOVA if no significant interactions were found with the two-way ANOVA. Significant differences between groups were assessed using a Newman-Keuls multiple comparison test. Data was analyzed using a computer program, Prizm (Graph Pad Software, San Diego, Calif.). Statistical significance was set at p<0.05. Results Toxicity and Pharmacokinetic Assessment of MnTBAP in Mice
# Mice were randomized into 4 groups using a two by two contingency table where two groups received either saline or bleomycin (3.5 U/kg body weight) by intratracheal instillation. Two groups also received either saline or MnTBAP (5 mg/kg body weight) by ip injection twice daily for 14 days.
# Bleomycin given by intratracheal instillation produces a marked airway and alveolar fibrotic response (Evans et al, Am Rev. Respir. Dis. 125(1):89-94 (1982)). Mice were assessed for changes in airway function by measuring a marker, enhanced pause (PENH), of airway narrowing using non-invasive whole body barometric plethysmography. […] Lung fibrosis was also assessed by measuring hydroxyproline content in the lung as an index of collagen accumulation.
# One lung from each mouse was instillation fixed with 4% paraformaldehyde and paraffin embedded for histopathology assessment. Tissue sections were stained with hematoxylin and eosin or with Masson trichrome stain to assess the degree of lung injury/fibrosis.
compound,measurement,setting,value
"O=C(O)c1ccc(-c2c3nc(c(-c4ccc(C(=O)O)cc4)c4ccc([n-]4)c(-c4ccc(C(=O)O)cc4)c4nc(c(-c5ccc(C(=O)O)cc5)c5ccc2[n-]5)C=C4)C=C3)cc1.[Mn+3] [MnTBAP, manganese (III) tetrakis (4-benzoic acid) porphyrin]",deaths,[1]; 50 mg/kg ip,no deaths
same,deaths,[1]; 88 mg/kg ip,1
same,LD50,"[1]; ip, 95% confidence interval 98-104 mg/kg",100 mg/kg
same,accumulation in the lung,[2],does not accumulate in the lung
same,Distribution half-life (T1/2),[2]; lung,0.233 h
same,Elimination half-life (T1/2),[2]; lung,9.5 h
same,Peak Level (Co),[2]; lung,80 μg/g protein
same,Distribution half-life (T1/2),[2]; serum,0.45 h
same,Elimination half-life (T1/2),[2]; serum,9.5 h
same,Peak Level (Co),[2]; serum,42 mg/L
same,paraquat-mediated cytotoxicity in tumor cells,[3],potentiated paraquat-mediated cytotoxicity
same,relative efficiency of potentiation of paraquat cytotoxicity,[3]; A549,more efficient than MnTM-4-PyP
same,cytotoxic effects of paraquat in non-tumor cells,[4],protected non-tumor cells against the cytotoxic effects of paraquat
same,cytotoxicity (LDH release),[5],None of the compounds produced cytotoxicity
same,decrease in airway constriction (PENH) produced by bleomycin,"[6]; 5 mg/kg ip twice daily, 14 days",30%
same,bleomycin-induced weight loss,"[6]; FIG. 8, after 5 days to end of study",attenuates bleomycin-induced weight loss
same,bleomycin-induced airway constriction and collagen accumulation,"[6]; FIG. 9, PENH and hydroxyproline, 14 days",attenuates bleomycin-induced airway constriction and collagen accumulation
same,bleomycin-induced lung injury by histopathology,"[6]; FIGS. 10, 11",attenuates bleomycin-induced pulmonary injury; also recorded: attenuates bleomycin-induced lung injury
same,PENH marker,[6]; MnTBAP alone,did not affect the PENH marker
same,hydroxyproline content of the lung,[6]; MnTBAP alone,little effect
same,lung histology,[6]; MnTBAP alone,no effect on lung histology
same,pathology score,[6]; MnTBAP alone,no effect on the pathology score
same,weight loss compared to saline control,"[6]; MnTBAP alone 5 mg/kg ip twice daily, 14 days",did not cause weight loss
same,maximum average loss of initial body weight,"[6]; bleomycin 3.5 U/kg it plus MnTBAP 5 mg/kg ip twice daily, 14 days, bleomycin alone 20%",10%
same,collagen accumulation by trichrome staining,[6]; bleomycin plus MnTBAP,decreased the collagen accumulation
same,attenuation of bleomycin pathology score,"[6]; fibrosis score scale 0-8, 14 days",28%
same,interstitial thickening and inflammatory responses produced by bleomycin,"[6]; histopathology, hematoxylin and eosin",attenuated the marked interstitial thickening and inflammatory responses
same,decrease in hydroxyproline content caused by bleomycin,"[6]; lung, 5 mg/kg ip twice daily, 14 days",23%
same,attenuation of bleomycin-induced increases in the various indices,"[6]; physiologic, biochemical and pathology indices",roughly 30%
